Source: patent publication US10975068B2, “6-aminopyridin-3-yl thiazoles as modulators of RORγT” (Janssen Pharmaceutica NV, priority 2016, dated 2021)

target: human RORγt ligand binding domain (RORγt LBD) (Homo sapiens (Human), UniProt P51449); assay: RORγt ThermoFluor® assay (thermal shift binding); conditions: read-out: ThermoFluor® Assay, Kd
Outline: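 His-tagged human RORγt LBD (0.065 mg/mL) with 60 μM 1,8-ANS in 100 mM Hepes pH 7.0, 10 mM NaCl, 2.5 mM GSH, 0.002% Tween-20 was heated at 1 °C/min.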

Sequence of human RORγt ligand binding domain (RORγt LBD) (P51449 other isoform, or with tags, fused parts or gaps): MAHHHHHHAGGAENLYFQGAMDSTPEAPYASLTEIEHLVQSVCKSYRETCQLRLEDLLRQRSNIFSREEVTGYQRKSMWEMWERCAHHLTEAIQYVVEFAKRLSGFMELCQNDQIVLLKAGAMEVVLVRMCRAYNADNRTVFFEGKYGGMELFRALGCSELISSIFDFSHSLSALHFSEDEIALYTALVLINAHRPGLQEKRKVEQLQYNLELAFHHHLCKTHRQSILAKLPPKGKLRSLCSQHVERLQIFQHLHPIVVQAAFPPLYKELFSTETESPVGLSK

SMILES | Kd [nM]
O=C(N[C@H]1C[C@H](O)C1)c1nc(C(=O)N2C3CCC2CC3)c(-c2cnc(N[C@@H](C3CC3)C(F)(F)F)cc2C(F)F)s1 [Example 318, 4-((1s,4s)-7-Azabicyclo[2.2.1]heptane-7-carbonyl)-5-(6-(((S)-1-cyclopropyl-2,2,2-trifluoroethyl)amino)-4-(difluoromethyl)pyridin-3-yl)-N-((1r,3S)-3-hydroxycyclobutyl)thiazole-2-carboxamide] | 8.1
C[C@H]1CCCN1C(=O)c1nc(C(=O)NCC(C)(C)O)sc1-c1cnc(NC(C)(C)C)cc1C(F)(F)F [Example 52, (S)-5-(6-(tert-Butylamino)-4-(trifluoromethyl)pyridin-3-yl)-N-(2-hydroxy-2-methylpropyl)-4-(2-methylpyrrolidine-1-carbonyl)thiazole-2-carboxamide] | 1.2
C[C@H](Nc1cc(C(F)F)c(-c2sc(C(=O)NCC(C)(C)O)nc2C(=O)N2CC(F)(F)C[C@@H]2C)cn1)C(F)(F)F [Example 135] | 3.5
CC[C@H](Nc1cc(C(F)(F)F)c(-c2sc(C(=O)NCC(C)(C)O)nc2C(=O)N2CCC[C@@H]2C)cn1)C(F)(F)F [Example 111, N-(2-Hydroxy-2-methylpropyl)-4-((S)-2-methylpyrrolidine-1-carbonyl)-5-(6-(((S)-1,1,1-trifluorobutan-2-yl)amino)-4-(trifluoromethyl)pyridin-3-yl)thiazole-2-carboxamide] | 1.8
